Measured values published in publication PMC5751115, “Screening In Vitro Targets Related to Diabetes in Herbal Extracts from Peru: Identification of Active Compounds in Hypericum laricifolium Juss. by Offline High-Performance Liquid Chromatography” (International Journal of Molecular Sciences, 2017).

Assays:
[1] = ABTS free radical scavenging assay; settings: for IC50 / Antioxidants ABTS IC50 (μM): Table 3, isolated compounds, NA is not active; for IC50: read-out: Antioxidants ABTS IC50
Procedure: The ABTS free radical scavenging activity was determined using ABTS radical cations (ABTS^+) with slight modifications [34]. Briefly, potassium persulfate (3.5 mM) and ABTS diammonium salt (2.0 mM) were mixed, diluted in distilled water, and subsequently allowed to stand in the dark at room temperature for 24 h before use, to allow free radical generation. To determine the scavenging activity, the absorbance was recorded at 750 nm using an EL-800 Universal microplate reader (BioTek Instrument Inc., Winooski, VT, USA) after incubating the sample solutions (10 µL, 1 mg/mL, 0.5 mg/mL in methanol) with ABTS solution (290 µL) for 10 min in a 96-well plate. Trolox was used as a positive control.

α-glucosidase [2] = assay: α-Glucosidase inhibitory assay; format: biochemical
Procedure: α-Glucosidase inhibitory activity was determined using a previously reported method with slight modifications. The initial concentration of the enzyme solution was 0.015 mg/mL in 0.1 M phosphate buffer (pH 6.9) and the initial concentration of the substrate solution was 1 mM in the same phosphate buffer. The enzyme solution was mixed in a clear 96-well microplate (flat bottom) and the reaction was initiated by the addition of the substrate to the solution. The plates were incubated at 37 °C for 10 min.

[3] = DPPH free radical scavenging assay; settings: for IC50 / Antioxidants DPPH IC50 (μM): Table 3, isolated compounds, NA is not active; for IC50: read-out: Antioxidants DPPH IC50
Procedure: The DPPH free radical scavenging activity was determined as previously described with slight modifications. […] After 15 min incubation in the darkroom, the absorbance change at 570 nm was measured on a microplate reader (EL800 Universal Microplate reader, BioTek Instruments, Winooski, VT, USA). L-Ascorbic acid was used as positive control.

α-glucosidase [4] = assay: α-Glucosidase ultrafiltration-HPLC assay; format: binding; settings: peak in HL 70% MeOH extract 0.1 mg/mL; α-glucosidase 3.9 μM
Procedure: The α-glucosidase present in the HL was profiled using a newly developed α-glucosidase ultrafiltration assay. Specifically, the HL 30 μL sample (final concentration = 0.1 mg/mL) was incubated with α-glucosidase (3.9 μM) in PBS (300 μL, pH 7.0) at 37 °C for 30 min. The incubated mixture was then filtered by centrifugation at 5167× g for 30 min at room temperature using a Microcon YM-10 centrifugal filter unit (Millipore, Bedford, MA, USA). The filtrate was subsequently analyzed by HPLC on a Dionex system (Dionex, Sunnyvale, CA, USA) consisting of a P850 pump, an ASI-100 automated sample injector, a Synergi Hydro-RP 80A column (150 mm × 4.6 mm, 4 μm; Phenomenex, Torrance, CA, USA) maintained at 30 °C, and a UVD170S detector. The injection volume was 10 μL and the flow rate of the mobile phase was 0.7 mL/min. The mobile phase compositions were as follows: 0.1% trifluoroacetic acid (A-line) and methanol (B-line). The gradient elution system was modified as follows: 0–35 min, starting with 5% B-line, programmed to reach 40% B-line at 15 min using a linear gradient, followed by 100% B-line from 15–35 min. The detector monitored the eluent at a wavelength of 254 nm. The sample incubated without α-glucosidase was used as control.

[5] = Offline DPPH-HPLC analysis; settings: peak area reduction in HL 70% MeOH extract after DPPH
Procedure: The DPPH radical assay was modified by an offline DPPH-HPLC assay. […] After incubation (15 min) in the dark room, the mixture was filtered through a 0.45-μm membrane and subsequently analyzed by HPLC (Section 3.9). The sample incubated with methanol was used as control. The decreases in peak area were expressed as the % quantitative reduction (% QR), calculated from the equation: % QR = (A − B)/A × 100%, where A and B are the HPLC peak areas of the compound incubated without and with the DPPH methanol solution, respectively.

[6] = Offline ABTS-HPLC analysis; settings: peak area reduction in HL 70% MeOH extract after ABTS
Procedure: Offline ABTS-HPLC was investigated by modifying a previously reported protocol. Briefly, 10 μL of 70% methanol extract from HL (20 mg/mL) was mixed with 140 μL ABTS solution that was prepared one day in advance. The mixture was then incubated at room temperature for 10 min and subsequently filtered through a 0.45 μm filter. The filtrate was analyzed by HPLC (Section 3.9). The methanol extract of HL (20 mg/mL in MeOH was used as control. The detector monitored the eluent at a wavelength of 300 nm and the % QR was calculated as described in Section 3.11.

[7] = target: rat lens aldose reductase (RLAR) (Rattus norvegicus, UniProt P07943); assay: Rat lens aldose reductase (RLAR) assay; format: biochemical; settings: for IC50 / AR IC50 (μM): Table 3, isolated compounds, means ± SD (n = 3), NA is not active; for IC50: read-out: AR IC50
Procedure: The rat lenses (RL) were prepared as follows: the RL were removed from the eyes from 10-week-old Sprague-Dawley rats (weight = 250–280 g) and frozen until required. The rats were housed in a standardized laboratory environment with a 12 h light/12 h dark cycle at constant room temperature (22 ± 1 °C) and humidity (6 ± 5%) before experimentation. All animals had free access to water and food.
The AR inhibitory activities were evaluated using RLAR. Prior to analysis, the lenses were homogenized in 0.1 M phosphate buffer saline (pH 6.2) and subsequently centrifuged at 10,000× g for 30 min at 4 °C. The rat lens aldose reductase (RLAR)-containing supernatant was then collected. A substrate comprising 531 μL 0.1 M potassium buffer (pH 7.0), 90 μL NADPH solution (1.6 mM in potassium buffer), 90 μL RLAR homogenate (6.5 U/mg), 90 μL ammonium sulfate solution (4 M in potassium buffer), and 90 μL DL-glyceraldehyde (25 mM in potassium buffer) was placed into a 1.0-mL cuvette and mixed with 9 μL sample (1 mg/mL dissolved in DMSO). RLAR activity was assessed spectrophotometrically by measuring the decrease in NADPH absorption at 340 nm over a 4 min period.

[8] = target: T1, Human recombinant AR (HRAR) (Homo sapiens, UniProt P15121); assay: HRAR ultrafiltration-HPLC assay; format: binding; settings: peak in HL 70% MeOH extract 0.1 mg/mL; HRAR 3.9 μM
T1 construct: purchased Wako Pure Chemical Industries Co. (Osaka, Japan)
Procedure: The AR Inhibitors (ARIs) present in HL were profiled using a newly developed AR ultrafiltration assay. Specifically, the HL sample (final concentration = 0.1 mg/mL) was incubated with 0.6 M ammonium sulfate and 3.9 μM HRAR (Human recombinant AR) in a total volume of 300 μL at 37 °C for 30 min. The incubated mixture was then filtered by centrifugation at 5167× g for 30 min at room temperature using a Microcon YM-10 centrifugal filter unit. The filtrate was subsequently analyzed by HPLC (Section 3.9). The sample incubated without HRAR was used as control.

[9] = means ± SD (n = 3), listed as Quercetin (7)

Cc1c(C)c2c(c(C)c1O)CCC(C)(C(=O)O)O2 (centres unmarked) [Trolox, 6-hydroxy-2,5,7,8-tetramethylchroman-2-carboxylic acid, reference compound]
ABTS IC50 ([1]; Table 2, means ± SD (n = 3)): 4.6 ± 0.1 mg/L
ABTS Inhibition (%) ([1]; Table 2, trolox at 17 μg/mL): 100 ± 0.1%
IC50 ([1]; means ± SD (n = 3)): 18.8 ± 0.5 µM

O=c1c(O)c(-c2ccc(O)c(O)c2)oc2cc(O)cc(O)c12 [Compound 7, quercetin]
α-glucosidase percentage inhibition (α-glucosidase [2]; isolated compound, Figure 2, 50 μg/mL): 91%
IC50 [3, 9]: 0.33 µM
IC50 [1, 9]: 0.33 ± 0.6 µM
total binding degree (TBD), α-glucosidase ultrafiltration-HPLC (α-glucosidase [4]): 61.57%
% quantitative reduction (QR), offline DPPH-HPLC [5]: 42.8%
quantitative reduction percentage (QR), offline ABTS-HPLC [6]: > 80%

O=C(O)/C=C/c1ccc(O)c(O)c1 [Compound 5, caffeic acid]
IC50 [7]: 28.3 ± 0.9 µM
IC50 ([3]; means ± SD (n = 3)): 47.2 ± 0.1 µM
IC50 ([1]; means ± SD (n = 3)): 7.2 ± 1.1 µM
quantitative reduction percentage (QR), offline ABTS-HPLC [6]: 76%

C[C@H]1O[C@H](O[C@H]2[C@H](O)[C@@H](O)[C@@H](O[C@H]3[C@H](O)[C@@H](O)C(O)O[C@@H]3CO)O[C@@H]2CO)[C@H](O)[C@@H](O)[C@@H]1N[C@H]1C=C(CO)[C@@H](O)[C@H](O)[C@H]1O (some centres unmarked) [Acarbose, acarbose, reference compound]
α-Glucosidase Inhibition (%) (α-glucosidase [2]; Table 2, 500 μg/mL): 55.82 ± 2.3%

O=C(O)c1ccc(O)cc1 [Compound 2, p-hydroxybenzoic acid]
AR IC50 (μM) [7]: inactive
Antioxidants DPPH IC50 (μM) ([3]; means ± SD (n = 3)): inactive
Antioxidants ABTS IC50 (μM) ([1]; means ± SD (n = 3)): inactive

O=C(/C=C/c1ccc(O)c(O)c1)O[C@@H]1C[C@](O)(C(=O)O)C[C@@H](O)[C@H]1O [Compound 3, chlorogenic acid]
IC50 [7]: 0.23 µM
total binding degree (TBD), HRAR ultrafiltration-HPLC [8]: ~ 20%

O=c1c(O)c(-c2ccc(O)c(O)c2)oc2cc(O)cc(O)c12 [Quercetin, quercetin, reference compound]
inhibition at 10 µg/mL ([7]; read-out: AR Inhibition (%)): 83.7 ± 2.6%

O=C(O)[C@H]1O[C@@H](Oc2c(-c3ccc(O)cc3)oc3cc(O)cc(O)c3c2=O)[C@H](O)[C@@H](O)[C@@H]1O [Compound 6, kaempferol 3-O-glucuronide]
IC50 [7]: 6 ± 1.1 µM
IC50 ([3]; means ± SD (n = 3)): 58.8 ± 2.1 µM
IC50 ([1]; means ± SD (n = 3)): 11 ± 0.2 µM
total binding degree (TBD), HRAR ultrafiltration-HPLC [8]: 30%

O=c1c(O)c(-c2ccc(O)cc2)oc2cc(O)cc(O)c12 [Compound 8, kaempferol]
IC50 [7]: 9.7 ± 0.5 µM
IC50 ([3]; means ± SD (n = 3)): 326 ± 3.3 µM
IC50 ([1]; means ± SD (n = 3)): 191.8 ± 1.1 µM
total binding degree (TBD), HRAR ultrafiltration-HPLC [8]: < 20%
% quantitative reduction (QR), offline DPPH-HPLC [5]: 51%
quantitative reduction percentage (QR), offline ABTS-HPLC [6]: 54%

O=C1O[C@H]([C@@H](O)CO)C(O)=C1O [L-Ascorbic, L-ascorbic acid, reference compound]
DPPH Inhibition (%) ([3]; Table 2, L-ascorbic acid at 71 μg/mL): 99.1 ± 0%
DPPH IC50 ([3]; Table 2, means ± SD (n = 3)): 17.6 ± 0.1 mg/L

O=C(O)c1ccc(O)c(O)c1 [Compound 1, protocatechuic acid]
IC50 [7]: 16.9 ± 1.9 µM
IC50 ([3]; means ± SD (n = 3)): 263.4 ± 0.2 µM
IC50 ([1]; means ± SD (n = 3)): 9.7 ± 0.9 µM

COc1cc(C(=O)O)ccc1O [Compound 4, vanillic acid]
AR IC50 (μM) [7]: inactive
Antioxidants DPPH IC50 (μM) ([3]; means ± SD (n = 3)): inactive
Antioxidants ABTS IC50 (μM) ([1]; means ± SD (n = 3)): inactive
